{
  "source": "paper PMC7497095",
  "about": "“Active Intermediates in Copper Nitrite Reductase Reactions Probed by a Cryotrapping‐Electron Paramagnetic Resonance Approach” (Angewandte Chemie (International Ed. in English), 2020)",
  "biological_target": "T1, AxNiR (Achromobacter xylosoxidans, UniProt O68601)",
  "T1 construct": "gene nir; two-domain copper nitrite reductase, homotrimer",
  "T1 sequence (O68601 entry or part of it)": "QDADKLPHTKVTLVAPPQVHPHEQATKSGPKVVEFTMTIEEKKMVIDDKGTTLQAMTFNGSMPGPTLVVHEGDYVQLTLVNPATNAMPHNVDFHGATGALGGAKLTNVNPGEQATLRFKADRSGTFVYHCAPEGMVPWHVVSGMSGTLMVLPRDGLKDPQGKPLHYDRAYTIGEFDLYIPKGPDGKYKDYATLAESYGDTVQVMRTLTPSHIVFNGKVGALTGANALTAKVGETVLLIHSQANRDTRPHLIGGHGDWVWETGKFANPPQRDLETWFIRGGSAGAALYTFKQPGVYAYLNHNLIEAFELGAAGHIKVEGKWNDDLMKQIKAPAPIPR",
  "test": "continuous-wave EPR of T2Cu; cryoreduction-EPR with annealing",
  "assay_type": "binding",
  "conditions": "oxidized enzyme; T2Cu active site; EPR at 20 K",
  "data": [
    {"smiles": "O=NO", "note": "[nitrite]", "values": [
      {"measurement": "continuous-wave EPR of T2Cu; cryoreduction-EPR with annealing", "result": "This is indicative of the nitrite being bound to the catalytic T2Cu site"}
    ]}
  ]
}
